According to patent US5863716A, “Treatment of plasmodium” (The Leland Stanford Junior University Board of Trustees, priority 1997, dated 1999):
Like-named read-outs stand apart in the source and are kept apart here.

Legend:
Format in all cases: cell-based, Plasmodium falciparum
P. falciparum strain FCB = assay: Inhibition of intraerythrocytic growth in culture, Giemsa staining after 24 h; details: for inhibition at 5 µM: Plasmodium falciparum, read-out: [%] inhibition of growth
Text: (§1) P. falciparum strain FCB was used for all experiments and cultured in vitro in according to a modification of the method of Trager and Jensen left off. Trager, W. and Jensen, J. B. (1976) Human malaria in continuous culture., Science (Wash. D.C.) 193: 673-675 Haldar, K., Ferguson, M. A. J. and Cross, G. A. M. (1985) Acylation of a Plasmodium falciparum merozoite surface antigen via sn-1, 2-diacyl glycerol. J. Biol. Chem. 260; 4969-4974. The culture medium contained RPMI 1640 supplemented with 25 Mm hepes, Ph 7.4/11 […] glucose/92 μM hypoxanthine/0.18% sodium bicarbonate/25 μM gentamicin and 10% AB^+ human sera. The parasites were grown in A^+ erythrocytes at 2.5-5% hematocrit. Parasite cultures were synchronized by separation of the early and late stages on a Percoll gradient. The subsequent reincubation of these stages in culture were used to obtain cells 12-24 h in the life cycle. Inhibition of sphingomyelin biosynthetic activity using 5 μM of the various compounds was carried out as described in Example 1. 5 μM of the various compounds were added to 0-12 h rings in the culture medium and cells were examined by Giemsa staining after 24 h.

sphingomyelin synthase = assay: Inhibition of plasmodial sphingomyelin biosynthesis in intact infected erythrocytes (C6-NBD-ceramide to C6-NBD-sphingomyelin, TLC); details: for [%] inhibition of sphingomyelin biosynthetic activity: 5 μM of compound; for effect on enzyme (sphingomyelin synthase) activity: 5 μM, see Example 3
Protocol: 1×10^8 infected cells 24 h after invasion were washed serum-free in RPMI 1640 and preincubated for thirty min at 37° C. in 1 ml of RPMI 1640 containing 0-5 μM or 0-500 μM of PPMP. (C6-NBD-ceramide (N-[7-(4-nitrobenzo-2-oxa-1,3-diazide)]-6-aminocaproyl-D-erythro-sphingosine) was added to each sample at a final concentration of 5 μM, the samples further incubated for 30 min at 37° C. and cellular lipids extracted. C6-NBD-sphingomyelin was resolved by TLC and quantitated by fluorescence spectrophotometry as described previously. Bligh, E. G. and Dyer, W. Y. (1959) A rapid method for total lipid extraction and purification., Can. J. Biochem. Physiol. 37: 911-917. Haldar, K., Uyetake, L., Ahori, N., Elmendorf, H. G. and Lu, W-1. (1991) The accumulation and metabolism of a fluorescent ceramide derivative in Plasmodium falciparum--infected erythrocytes., Mo. Biochem. Parasitol. 49: 143-156. Elmendorf, H. G. and Haldar, K. (1994) Plasmodium falciparum exports the Golgi marker sphingomyelin synthase into a tubovesicular network in the cytoplasm of mature erythrocytes., J. Cell Biol. 124: 449-462. Each value obtained represented the mean of triplicate determinations from five experiments. The arrow bars indicate the standard deviations. The results are depicted in FIG. 1.
as §1

P. falciparum = assay: Intraerythrocytic development in long term synchronized culture, parasitemia over consecutive cycles; details: Plasmodium falciparum; over three cycles of growth; read-out: lowest effective, killing concentration
Protocol: Synchronized cultures 12 h after invasion were subjected to different concentrations of PPMP. Parasitemias of drug-treated cultures were determined at various time points during two intraerythrocytic cycles and compared to cells grown in the absence of drug.
The effect of the single lipid analogs to inhibit parasite development in long term culture in consecutive cycles of the parasite growth were investigated. The studies were initiated with synchronized, young rings (0-12h) at 10% parasitemia. In order to ensure healthy growth of the malaria parasite in vitro, the parasitemias of the cultures are not allowed to exceed 10%. Yet under normal conditions a 3-6 fold increase in parasitemias is detected with each round of invasion: thus for each new cycle, the cultures were diluted 4-fold into fresh erythrocytes in the absence or presence of the drug. […] The lowest effective, killing concentration of PDMP over three cycles of growth is 1.0 μM.

[1] = system: P. falciparum schizonts and merozoites; assay: Schizont maturation and merozoite invasion in the presence of drug; details: 5 μM
Protocol: Schizont-stage parasites isolated over Percoll were allowed to invade in the presence of RPMI 1640 containing 10% human serum or in the presence of RPMI 1640 containing 10% human serum and 5 μM PPMP. 1×10^8 infected erythrocytes of the appropriate stage were incubated in 1 ml of RPMI 1640 supplemented with 2mg/ml defatted BSA and 20 μM C5 -DMB-ceramide. Cells were washed and fixed as described in Example 5. Sequential micrographs were taken on a custom made laser confocal microscope at 400 nm intervals along the Z axis. Raw data were processed as described previously.
Furthermore, the released daughter merozoites enter red cells to form new rings in the continued presence of the drug. This supports the conclusion that the parasite sphingomyelin synthase is essential only to ring and trophozoite-infected red cells in the first 30 to 36 h of intraerythrocytic development.
To determine whether the parasite specific sphingomyelin synthase activity is required for the development of the TVM, ring-infected erythrocytes inhibited in the enzyme from the onset of intra- erythrocytic development were employed. […] Optical sections obtained by staining with C5 DMB-ceramide were observed. A tubular structure was seen extending from the body of the parasite apparently connected to a larger vesicle in the red cell. In rings formed in the presence of PPMP, the intraerythrocytic structures are seen as discrete domains, separated from each other in all three sections. […] Thus, specific inhibition of the parasite's sphingomyelin biosynthetic activity appears to alter the interconnected "tubovesicular morphology" of the TVM into isolated intraerythrocytic compartments or "vesicles" in ring stage parasites.

[2] = 5 μM added to 0-12 h rings, Giemsa staining after 24 h

| Structure (SMILES) | [%] inhibition of sphingomyelin biosynthetic activity (sphingomyelin synthase) [%] | inhibition at 5 µM (P. falciparum strain FCB; [2]) [%] | also measured |
| --- | --- | --- | --- |
| CCCCCCCCCCCCCCC[C@H](O)[C@@H](N)CO (racemic) [dl-dihydrosphingosine] | 4 |  | [%] inhibition of growth (P. falciparum strain FCB; [2]): 8%; effect on enzyme (sphingomyelin synthase) activity (sphingomyelin synthase): no effect |
| CCCCCCCCCC(=O)N[C@H](CN1CCOCC1)[C@H](O)c1ccccc1 (relative stereo) [dl-threo-PDMP, dl-threo-1-phenyl-2-decanoylamino-3-morpholino-1-propanol] |  | 100 | minimal effective concentration (P. falciparum): 1 µM; fate of schizonts greater than 40 h in the cycle [1]: mature and rupture |
| CCCCCCCCCCCCC/C=C/[C@@H](O)[C@@H](N)CO [sphingosine] | 0 |  | inhibition at 5 µM (P. falciparum strain FCB): 0%; effect on enzyme (sphingomyelin synthase) activity (sphingomyelin synthase): no effect |
| CCCCCCCCCCCCCCCCCCN [stearylamine] |  | 0 |  |
| CCCCCCCCCC(=O)N[C@@H](CN1CCOCC1)[C@H](O)c1ccccc1 (relative stereo) [dl-erythro-PDMP] |  | 5 |  |
| CN(C)CCCN1c2ccccc2CCc2ccccc21 [imipramine] | 0 |  | inhibition at 5 µM (P. falciparum strain FCB): 7% |
| CCN(CC)CCO[C@H]1CC[C@@]2(C)C(=CC[C@@H]3[C@@H]2CC[C@]2(C)C(=O)CC[C@@H]32)C1 [U 18666 A] | 0 | 1 |  |
